The subject of test [1] is human NSCLC lines. Kind of test: Growth rates over 10 day time-course (Cell Titer Glo), 12 cell lines. Type of test: cell-based. The settings on record: 1 μM DZNep, 10 day time-course. As for the experimental part: FIG. 2A depicts a Western Blot for EZH2 and H3K27me3 performed on whole cell extracts 4 days after indicated treatments, β-actin shown as a loading control. FIG. 2B depicts a graph of the growth rates of matched shGFP and shGFP cells treated with 1 μM DZNep and assayed by Cell Titer Glo at days 3, 5, 7, and 10 post plating at equal densities. Average luminescence ±s.e.m. for 3 replicate wells is shown based on when each shGFP cell line reached logarithmic growth, * indicates p<0.03. FIG. 2C depicts a graph of the response to Etoposide. Cell lines were plated at equal densities and treated a range of etoposide doses with or without 1 μM DZNep. On the 4th day, cell viability was measured using Cell Titer Glo and the percent survival at each dose of etoposide was calculated. Dose response curves were generated for the no DZNep and DZNep treated cells using the GraphPad prism software and IC50s were extrapolated. The fold change±s.e.m. of etoposide IC50 in response to DZNep is plotted, n=4 biological replicates, * indicates p<0.05. Cell lines with mutations in Brg1, EGFR and B-Raf are indicated.

Test [2] has as its system human NSCLC lines. Put plainly: Cytotox assays: chemotherapy dose response curves with or without EZH2 inhibitor, 4 days. The format is cell-based. As for the experimental part:
Cell lines were dissociated, counted and plated at 5000 cells per well in flat bottom opaque tissue culture treated 96 well plates (CytoOne). Edge wells were filled with PBS. The following day, 2× drug diluted in media was added to each well such that the well then contained 100 ul media with 1× drug concentration. After 4 days, Cell Titer Glo™ (Promega) was added and luminescence was read on a BioTec plate reader to determine relative cell number in each well. Data were averaged for triplicate or quadruplicate technical replicates, normalized to the untreated wells and input into GraphPad Prism software to extrapolate IC50.
Cell lines were dissociated, counted and plated at 5000 cells per well in flat bottom opaque tissue culture treated 96 well plates (CytoOne). Edge wells were filled with PBS. The following day, 2× drug diluted in media was added to each well such that the well then contained 100 ul media with 1× drug concentration at the following doses: etoposide; 0, 0.1, 1, 3, 5, 7, 10, 50, 100, 500 μM, cisplatin; 0, 0.1, 1, 5, 10, 30, 70, 100, 500 μM, or doxorubicin; 0, 0.01, 0.1, 0.5, 1, 3, 5, 7, 10, 50 μM. […] Data were averaged for triplicate or quadruplicate technical replicates and normalized to the untreated wells. Results from three or four independent biological replicate experiments were input into […] PRISM™ software to extrapolate IC50 and s.e.m. of IC50 for a given cell line.

Where “and” joins values, the source holds several entries; their conditions need not be identical. Identical values can stand only once.

As for `Nc1nccc2c1ncn2[C@@H]1C=C(CO)[C@@H](O)[C@H]1O` [DZNep, 3-Deazaneplanocin A], the “cell lines with reduced growth rates” value in the test on human NSCLC lines [1] is on record as 11 out of 12. Also, the “cell lines more sensitive to etoposide in the presence of DZNep” value in the test with human NSCLC lines [2] (1 μM DZNep, 4 days, panel of 29 (Example 1) or 26 (Example 2) lines) is 16 of the 29 and 14 of the 26. Further, in the test on human NSCLC lines [2] (H23, H460 and H441, 1 μM DZNep, 4 days), the “sensitivity to etoposide in the presence of DZNep, protected lines” value is reported as “less sensitive”. Moreover, the “sensitivity to etoposide in the presence of DZNep, sensitized lines” value in the test on human NSCLC lines [2] (H157, HCC15, PC9, H157, A549, PC9, 1 μM DZNep, 4 days) is “more sensitive”. In addition, the “pattern of sensitized and protected cells with cisplatin combined with DZNep” value in the test on human NSCLC lines [2] (cis-platinum combined with DZNep) is reported as “not observed”.

The record behind these values is patent US9895390B2, “Methods and assays for combination treatment of cancer” (CHILDREN'S MEDICAL CENTER CORPORATION, priority 2012, dated 2018).
